Measurements from PubChem BioAssay (NCI).
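Dose response: 5 concentrations. Exposure: 48 h. Format: 96-well plates. Endpoint: linear interpolation; highest concentration if not reached. Here, GI50 denotes the concentration required for 50% inhibition of growth. TGI: concentration producing complete growth inhibition.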

How the values were obtained:
Test in all cases: inhibition of tumour cell growth, NCI panel, 48 h
LOX IMVI melanoma = system: LOX IMVI melanoma
A549 NSCLC = system: A549 NSCLC
KM12 colon = system: KM12 colon
HCT-116 colon = system: HCT-116 colon
SK-MEL-2 melanoma = system: SK-MEL-2 melanoma
SK-MEL-5 melanoma = system: SK-MEL-5 melanoma
NCI-H226 lung = system: NCI-H226 lung
DU-145 prostate = system: DU-145 prostate
RPMI-8226 leukemia = system: RPMI-8226 leukemia
U251 CNS = system: U251 CNS
MCF7 breast = system: MCF7 breast
NCI-H23 lung = system: NCI-H23 lung
786-0 renal = system: 786-0 renal
HS 578T breast = system: HS 578T breast
CCRF-CEM leukemia = system: CCRF-CEM leukemia
COLO 205 colon = system: COLO 205 colon
SN12C renal = system: SN12C renal
SNB-75 CNS = system: SNB-75 CNS
HT29 colon = system: HT29 colon
MDA-MB-231 breast = system: MDA-MB-231 breast
HOP-92 NSCLC = system: HOP-92 NSCLC
ACHN renal = system: ACHN renal
SK-MEL-28 melanoma = system: SK-MEL-28 melanoma
NCI/ADR-RES ovarian = system: NCI/ADR-RES ovarian
SF-295 CNS = system: SF-295 CNS
EKVX NSCLC = system: EKVX NSCLC
PC-3 prostate = system: PC-3 prostate
MDA-MB-435 = system: MDA-MB-435
SK-OV-3 ovarian = system: SK-OV-3 ovarian
HCC-2998 colon = system: HCC-2998 colon
UACC-257 melanoma = system: UACC-257 melanoma
IGROV1 ovarian = system: IGROV1 ovarian
A498 renal = system: A498 renal
OVCAR-3 ovarian = system: OVCAR-3 ovarian
OVCAR-4 ovarian = system: OVCAR-4 ovarian
BT-549 breast = system: BT-549 breast
T-47D breast = system: T-47D breast
TK-10 renal = system: TK-10 renal
SNB-19 CNS = system: SNB-19 CNS
SW-620 colon = system: SW-620 colon
SF-268 CNS = system: SF-268 CNS
HCT-15 colon = system: HCT-15 colon
CAKI-1 renal = system: CAKI-1 renal
SF-539 CNS = system: SF-539 CNS
NCI-H522 lung = system: NCI-H522 lung
OVCAR-5 ovarian = system: OVCAR-5 ovarian
UACC-62 melanoma = system: UACC-62 melanoma
OVCAR-8 ovarian = system: OVCAR-8 ovarian
NCI-H460 lung = system: NCI-H460 lung
RXF 393 renal = system: RXF 393 renal
M14 melanoma = system: M14 melanoma
MALME-3M melanoma = system: MALME-3M melanoma
MOLT-4 leukemia = system: MOLT-4 leukemia
HOP-62 NSCLC = system: HOP-62 NSCLC
UO-31 renal = system: UO-31 renal

COc1cc2c(cc1OCc1ccccc1)N=CC1C[C@@H](O)CN1C2=O (stereo not given in full)
GI50 (LOX IMVI melanoma): 2.37 µM | TGI (LOX IMVI melanoma): 6.5 µM | GI50 (A549 NSCLC): 19.2 µM | TGI (A549 NSCLC): > 100 µM | GI50 (KM12 colon): 4.04 µM | TGI (KM12 colon): 32 µM | GI50 (HCT-116 colon): 9.77 µM | TGI (HCT-116 colon): 42.2 µM | GI50 (SK-MEL-2 melanoma): 3.08 µM | TGI (SK-MEL-2 melanoma): 9.19 µM | GI50 (SK-MEL-5 melanoma): 2.53 µM | TGI (SK-MEL-5 melanoma): 5.38 µM | GI50 (NCI-H226 lung): 23.6 µM | TGI (NCI-H226 lung): > 100 µM | GI50 (DU-145 prostate): 4.04 µM | TGI (DU-145 prostate): 72.1 µM | GI50 (RPMI-8226 leukemia): 2.57 µM | TGI (RPMI-8226 leukemia): > 28 µM | GI50 (U251 CNS): 2.86 µM | TGI (U251 CNS): > 100 µM | GI50 (MCF7 breast): 5.06 µM | TGI (MCF7 breast): > 100 µM | GI50 (NCI-H23 lung): 7.83 µM | TGI (NCI-H23 lung): 25.3 µM | GI50 (786-0 renal): 2.26 µM | TGI (786-0 renal): 7.68 µM | GI50 (HS 578T breast): 4.84 µM | TGI (HS 578T breast): 18.6 µM | GI50 (CCRF-CEM leukemia): 1.79 µM | TGI (CCRF-CEM leukemia): 12.2 µM | GI50 (COLO 205 colon): 3.77 µM | TGI (COLO 205 colon): > 30.9 µM | GI50 (SN12C renal): 5.77 µM | TGI (SN12C renal): 24.2 µM | GI50 (SNB-75 CNS): 9.08 µM | TGI (SNB-75 CNS): 47 µM | GI50 (HT29 colon): 7.22 µM | TGI (HT29 colon): > 100 µM | GI50 (MDA-MB-231 breast): 3.01 µM | TGI (MDA-MB-231 breast): 16.9 µM | GI50 (HOP-92 NSCLC): 3.99 µM | TGI (HOP-92 NSCLC): 39 µM | GI50 (ACHN renal): 5.83 µM | TGI (ACHN renal): 50 µM | GI50 (SK-MEL-28 melanoma): 8.23 µM | TGI (SK-MEL-28 melanoma): 28.4 µM | GI50 (NCI/ADR-RES ovarian): 14.7 µM | TGI (NCI/ADR-RES ovarian): > 56.7 µM | GI50 (SF-295 CNS): 4.62 µM | TGI (SF-295 CNS): > 71.5 µM | GI50 (EKVX NSCLC): 24.2 µM | TGI (EKVX NSCLC): 56.4 µM | GI50 (PC-3 prostate): 23.1 µM | TGI (PC-3 prostate): > 100 µM | GI50 (MDA-MB-435): 3.88 µM | TGI (MDA-MB-435): 14.7 µM | GI50 (SK-OV-3 ovarian): 17.5 µM | TGI (SK-OV-3 ovarian): > 71.5 µM | GI50 (HCC-2998 colon): 17.1 µM | TGI (HCC-2998 colon): 37.1 µM | GI50 (UACC-257 melanoma): 19.2 µM | TGI (UACC-257 melanoma): > 59.6 µM | GI50 (IGROV1 ovarian): 6.89 µM | TGI (IGROV1 ovarian): > 60.7 µM | GI50 (A498 renal): 2.06 µM | TGI (A498 renal): 5.25 µM | GI50 (OVCAR-3 ovarian): 2.64 µM | TGI (OVCAR-3 ovarian): 18.2 µM | GI50 (OVCAR-4 ovarian): 12.4 µM | TGI (OVCAR-4 ovarian): > 73.5 µM | GI50 (BT-549 breast): 2.47 µM | TGI (BT-549 breast): 9.54 µM | GI50 (T-47D breast): 1.95 µM | TGI (T-47D breast): 7.09 µM | GI50 (TK-10 renal): 2.37 µM | TGI (TK-10 renal): 12.7 µM | GI50 (SNB-19 CNS): 6.52 µM | TGI (SNB-19 CNS): > 100 µM | GI50 (SW-620 colon): 3.16 µM | TGI (SW-620 colon): 31.3 µM | GI50 (SF-268 CNS): 3.41 µM | TGI (SF-268 CNS): 26.7 µM | GI50 (HCT-15 colon): 15.2 µM | TGI (HCT-15 colon): > 82.1 µM | GI50 (CAKI-1 renal): 1.24 µM | TGI (CAKI-1 renal): 6.78 µM | GI50 (SF-539 CNS): 2.11 µM | TGI (SF-539 CNS): 6.76 µM | GI50 (NCI-H522 lung): 1.4 µM | TGI (NCI-H522 lung): 7.43 µM | GI50 (OVCAR-5 ovarian): 3.37 µM | TGI (OVCAR-5 ovarian): > 25.3 µM | GI50 (UACC-62 melanoma): 0.824 µM | TGI (UACC-62 melanoma): 17.1 µM | GI50 (OVCAR-8 ovarian): 8.35 µM | TGI (OVCAR-8 ovarian): > 74.8 µM | GI50 (NCI-H460 lung): 10.7 µM | TGI (NCI-H460 lung): > 100 µM | GI50 (RXF 393 renal): 1.7 µM | TGI (RXF 393 renal): 4.95 µM | GI50 (M14 melanoma): 4.71 µM | TGI (M14 melanoma): 19.5 µM | GI50 (MALME-3M melanoma): 9.08 µM | TGI (MALME-3M melanoma): 26 µM | GI50 (MOLT-4 leukemia): 2.01 µM | TGI (MOLT-4 leukemia): 5.51 µM | GI50 (HOP-62 NSCLC): 2.4 µM | TGI (HOP-62 NSCLC): 9.52 µM | GI50 (UO-31 renal): 3.52 µM | TGI (UO-31 renal): 19.2 µM
